Results as given in ChEMBL document CHEMBL1147314, “A pentacyclic triterpene with anti-inflammatory and analgesic activity from the roots of Commiphora merkeri” (1989).

Legend:
Rattus norvegicus [1] = test: Antiinflammatory activity in rat assessed as inhibition of carrageenan-induced edema at 100 mg/kg; type: functional
Rattus norvegicus [2] = test: Analgesic activity in rat assessed as inhibition of writhing at 100 mg/kg; type: functional

SMILES	inhibition in vivo at 100 mg/kg (Rattus norvegicus [1])	inhibition in vivo at 100 mg/kg (Rattus norvegicus [2])
CC1(C)CC[C@]2(C)CC[C@]3(C)C(=CC[C@@H]4[C@@]5(C)C[C@@H](O)[C@H](O)[C@@](C)(CO)[C@@H]5CC[C@]43C)[C@@H]2C1	28%	37%
CC(=O)Oc1ccccc1C(=O)O [ASPIRIN]	–	85%
CCCCC1C(=O)N(c2ccccc2)N(c2ccccc2)C1=O [PHENYLBUTAZONE]	64%	–
